From US7071203B2, “Pharmaceutically acceptable salts of 20(s)-camptothecins” (Dr. Reddy's Laboratories Limited, priority 2001, dated 2006) come the findings set out here.

Data set [1] has as its system OVCAR-8. Description: Sulforhodamine B growth inhibition, ovarian cell line OVCAR-8. Type of data set: cell-based, human. Particulars: OVARIAN: OVCAR-8, 48 h; for GI50: Homo sapiens, read-out: Growth Inhibition (GI 50). How it is done:
(§1) Each test compound was screened against a battery of cell lines representing eight different types of cancers. In a typical procedure, 1×10^4 cells were seeded into each well of 96 well plate in 100 μL volume of RPMI 1640 medium containing antibiotics and 10% FCS.
(§2) The plates were incubated at 37° C. in presence of CO2. After 24 h, test compounds were evaluated at five 10-fold dilutions ranging from 100 to 0.01 μM. To each test well 100 μL of test compound solution was added and medium with vehicle was added to control wells and the plates were further incubated. After 48 h of incubation, plates were terminated by Sulforhodamine B method.
(§3) The optical density, which is proportional to protein mass, is then read by automated spectrophotometric plate reader at a wavelength of 515 nm. Readings were transferred to a microcomputer and mean 50% Growth Inhibition (GI50) and mean Total Growth Inhibition were calculated.

Data set [2] concerns UACC-62. Description: Sulforhodamine B growth inhibition, melanoma cell line UACC-62. Type of data set: cell-based, human. Particulars: for GI50: Homo sapiens, read-out: Growth Inhibition (GI 50). The procedure:
as §1, §2, §3

The test system of data set [3] is HOP-62. Description: Sulforhodamine B growth inhibition, lung cell line HOP-62. To be noted: LUNG: HOP-62, 48 h; for GI50: Homo sapiens, read-out: Growth Inhibition (GI 50). The class given is cell-based, human. How it is done:
as §1, §2, §3

In data set [4] the test system is DU-145. Description: Sulforhodamine B growth inhibition, prostate cell line DU-145. The class given is cell-based, human. Particulars: for GI50: Homo sapiens, read-out: Growth Inhibition (GI 50). The procedure: as §1, §2, §3
The test system of data set [5] is MCF-7/ADR. Description: Sulforhodamine B growth inhibition, breast cell line MCF-7/ADR. The class given is cell-based, human. Particulars: 48 h; for GI50: Homo sapiens, NCI/ADR-RES, read-out: Growth Inhibition (GI 50). How it is done:
as §1, §2, §3

The test system of data set [6] is ACHN. Description: Sulforhodamine B growth inhibition, renal cell line ACHN. The class given is cell-based, human. To be noted: 48 h; for GI50: Homo sapiens, read-out: Growth Inhibition (GI 50). How it is done: as §1, §2, §3
In data set [7] the test system is SF-268. Description: Sulforhodamine B growth inhibition, CNS cell line SF-268. Particulars: CNS: SF-268, 48 h; for GI50: Homo sapiens, read-out: Growth Inhibition (GI 50). Type of data set: cell-based, human. How it is done: as §1, §2, §3
Data set [8] is described as follows: Single dose oral pharmacokinetic studies. Type of data set: in vivo, Male Swiss Albino Mice. How it is done: Male Swiss Albino Mice (20–30 g) were used in the experiments. The animals were maintained under standard laboratory conditions and had free access to feed and water ad libitum. Before experimentation animals were fasted overnight (˜15 h) during which they had free access to water ad libitum.
An amount equivalent to 10 mg of drug was weighed accurately and transferred into a clean mortar and triturated to obtain a fine powder. To this 500 μl of DMSO (10%) was added to obtain a clear solution. To this 4.5 ml of sodium carboxy methyl cellulose (sodium CMC) was added to make up the volume to 5 ml. Based on the animal weight appropriate volume (body weight in grams×10=no. of μl of dose to be given) of the prepared solution was administered through oral gavage.
After dosing, at designated time points (0.5, 1, 2, 3, 5, 8 and 12 h) 100 μl of blood was collected from retro orbital plexus into 0.5 ml eppendorff tubes containing EDTA (5 μl of 200 mg/ml solution in Milli Q water). Blood was centrifuged at 12,800 rpm for 2 min and plasma was separated and immediately taken for analysis, without delay, in order to estimate both lactone and carboxylate forms of the compound.
50 μl plasma was transferred into a clean 2 ml micro centrifuge tube. To this ice cold methanol was added (450 μl) and vertex mixed for 15 sec to extract the compound. These contents were centrifuged for 2 min at 12,800 rpm dry centrifuge tube. Clear supernatant was separated in to a 300 μl of auto sampler vial maintained at 4° C. and 20 μl of this was injected into HPLC column. HPLC Conditions:
HPLC system (Shimadzu) consisted of system controller (SCL-10AVP), Isocratic pump (LC-10ATVP), auto sampler (SIL-10ADVP), fluorescence detector (RF-10AXL) and column oven at 25° C. (CTO-1OASVP) was controlled by Class-VP software. Sample was eluted through column (Supelcosil-LC318, 5μ, 4.6×250 mm, 300° A) with mobile phase [1% TEAA (pH=5.5):Acetonitrile:MeOH::80:15:5) pumped at 1.0 ml/min flow rate and eluent was detected using fluorescence detector set at Ex. 370 nm/Em. 537 nm. The approx. RTs were carboxylate (CA1=4.1 min, CA2=4.8 min) and lactone (LA1=7.9 min, LA2=11.6 min).
For the determination of drug concentration, peak area ratios of the drug to internal standard versus the concentration (range: 0.05–10 μg/ml) for both carboxylate and lactone forms were plotted separately and linear regression was applied using software “Sigma Plot” (Jandel Scientific version, 2.0, USA). Correlation coefficients (r^2) of 0.99 or better were obtained.
Pharmacokinetic parameters were calculated for both carboxylate and lactone forms separately by non-compartmental model analysis. The peak plasma concentration (Cmax) and the corresponding time (Tmax) were directly obtained from the raw data. The area under the plasma concentration versus time curve up to the last quantifiable time point, AUC(0-t) was obtained by the linear and log-linear trapezoidal summation. The AUC(0-t) extrapolated to infinity (i.e., AUC (0-∞)) by adding the quotient of Clast/Kel, where Clast represents the last measurable time concentration and Kel represents the apparent terminal rate constant. Kel was calculated by the linear regression of the log-transformed concentrations of the drug in the terminal phase. The half-life of the terminal elimination phase was obtained using the relationship t1/2=0.693/ Kel.

In data set [9] the test system is U251. Description: Sulforhodamine B growth inhibition, CNS cell line U251. Type of data set: cell-based, human. The procedure: as §1, §2, §3
The test system of data set [10] is MCF 7. Description: Sulforhodamine B growth inhibition, breast cell line MCF 7. Type of data set: cell-based, human. How it is done:
as §1, §2, §3

The test system of data set [11] is A 498. Description: Sulforhodamine B growth inhibition, renal cell line A 498. Type of data set: cell-based, human. The procedure: as §1, §2, §3
In data set [12] the test system is PC-3. Description: Sulforhodamine B growth inhibition, prostate cell line PC-3. Type of data set: cell-based, human. Particulars: PROSTATE: PC-3, 48 h. How it is done: as §1, §2, §3
Data set [13] deals with SW-620. Description: Sulforhodamine B growth inhibition, colon cell line SW-620. The class given is cell-based, human. Particulars: COLON: SW-620, 48 h. The procedure:
as §1, §2, §3

Data set [14] relates to SKOV-3. Description: Sulforhodamine B growth inhibition, ovarian cell line SKOV-3. Type of data set: cell-based, human. How it is done:
as §1, §2, §3

Data set [15] has as its system PA-1. Description: Sulforhodamine B growth inhibition, ovarian cell line PA-1. The class given is cell-based, human. To be noted: OVARIAN: PA-1, 48 h. How it is done: as §1, §2, §3
The test system of data set [16] is H 522. Description: Sulforhodamine B growth inhibition, lung cell line H 522. The class given is cell-based, human. The procedure: as §1, §2, §3
The mark [17] stands for this setting: MELANOMA: UACC-62, 48 h, Sulforhodamine B.
Setting [18] is: PROSTATE: DU-145, 48 h, Sulforhodamine B.
The mark [19] stands for this setting: BREAST: MCF-7/ADR, Sulforhodamine B.
Setting [20] is: Lactone, single oral dose, mice, plasma, n = 3.
The mark [21] stands for this setting: male, Swiss Albino, mouse, in vivo, po.
The mark [22] stands for this setting: Homo sapiens, read-out: Growth Inhibition (GI 50).

Each structure is given as a SMILES string. Structures can show the parent of a compound that is named as a salt. Where two headings read alike, the source gives them in different places. Where only a bound is given, the exact number is not on record here.

In the case of `CC[C@@]1(O)C(=O)OCc2c1cc1n(c2=O)C(OCCO)c2cc3c(CN(C)C)c(O)ccc3nc2-1` (stereo partly drawn) [Example 2, 10-Hydroxy-9-N,N-dimethylaminomethyl-5-(2′-hydroxyethoxy)-20(S)-camptothecin hydrochloride], the GI50 stood at 1 µM in data set [1]; 6 µM in data set [2] (UACC-62, 48 h); 8 µM in data set [3]; 5.5 µM in [4] (DU-145, 48 h); 7.5 µM in [5]; 4 µM in [6]. For the same compound, the GI50 in [7] was 7.5 µM. Besides, the “Total Growth Inhibition (TGI)” value is 80.0 µM in [1]; 6.0 µM in data set [2] (setting [17]); above 100 µM in data set [3]; 25.0 µM in data set [4] (setting [18]); 50.0 µM in data set [5] (setting [19]); 40.0 µM in data set [6]. Further, the “Total Growth Inhibition (TGI)” value in data set [7] is above 100 µM.
For the compound `CC[C@@]1(O)C(=O)OCc2c1cc1n(c2=O)C(O)c2cc3c(CN(C)C)c(O)ccc3nc2-1` (stereo partly drawn) [Example 1, 10-Hydroxy-9-N,N-dimethylaminomethyl-5-hydroxy-20(S)-camptothecin hydrochloride], the GI50 turned out to be 0.5 µM in data set [1]; 0.7 µM in data set [2] (UACC-62, 48 h); 0.6 µM in data set [3]; 0.4 µM in data set [4] (DU-145, 48 h); 0.25 µM in data set [5]; 0.4 µM in data set [6]. For the same compound, in data set [7], the GI50 was 0.55 µM. In addition, the “Total Growth Inhibition (TGI)” value in [1] was above 100 µM; in data set [2] (setting [17]), 4.5 µM; in data set [3] it was 25.0 µM; in [4] (setting [18]), 0.8 µM; in data set [5] (setting [19]), 0.9 µM; in [6] it was 1.0 µM. Moreover, the “Total Growth Inhibition (TGI)” value in data set [7] was 90.0 µM.
In data set [8] (setting [20]), `CC[C@@]1(O)C(=O)OCc2c1cc1n(c2=O)C(OCCF)c2cc3c(CN(C)C)c(O)ccc3nc2-1` (stereo partly drawn) [Example 3, 10-Hydroxy-9-N,N-dimethylaminomethyl-5-(2′-fluoroethoxy)-20(S)-camptothecin hydrochloride] displayed a Kel of 0.19 h⁻¹. For the same compound, in [8] (setting [20]), the “T1/2β(4,6,8h)^@” value amounted to 422 min. In data set [8] (setting [21]), this compound yielded an AUC(0-inf) of 9.74 µM·h. In data set [8] (setting [21]), this compound showed an AUC(0-t) of 6.1 µM·h. In addition, in data set [8] (setting [21]), the “AUC(0–t)” value was determined as 11.05 µM·h. Also, the “AUC(0–∞)” value in data set [8] (setting [21]) turned out to be 15.14 µM·h. Moreover, the time of peak concentration (Tmax) in [8] (setting [21]) amounted to 15 min. The “Total Growth Inhibition (TGI)” value in data set [9] (48 h) was above 100 µM; in data set [10] (BREAST: MCF 7, 48 h), 10.0 µM; in data set [2] (setting [17]), 8.0 µM; in [4] (setting [18]), above 100 µM; in data set [5] (setting [19]), above 100 µM; in [11] (RENAL: A 498, 48 h) it was 15.0 µM. Also, the “Total Growth Inhibition (TGI)” value in [12] is above 100 µM; in data set [13] it was above 100 µM; in data set [14] (OVARIAN: SKOV-3, 48 h), 40.0 µM; in data set [15] it was 5.0 µM; in [16] (LUNG: H 522, 48 h) it was 90.0 µM. For the same compound, the GI50 was 1.5 µM in data set [9] (Homo sapiens, U-251, 48 h, read-out: Growth Inhibition (GI 50)); 7.5 µM in [10] (Homo sapiens, MCF7, BREAST: MCF 7, 48 h, read-out: Growth Inhibition (GI 50)); 1.5 µM in data set [2] (setting [17]); 4 µM in data set [4] (setting [18]); 8 µM in [5] (setting [19]); 0.7 µM in data set [11] (Homo sapiens, A498, RENAL: A 498, 48 h, read-out: Growth Inhibition (GI 50)). Besides, the GI50 in data set [12] (setting [22]) was 9 µM; in data set [13] (setting [22]), 60 µM; in data set [14] (Homo sapiens, SK-OV-3, OVARIAN: SKOV-3, 48 h, read-out: Growth Inhibition (GI 50)) it was 6 µM; in data set [15] (setting [22]), 1 µM; in data set [16] (Homo sapiens, NCI-H522, LUNG: H 522, 48 h, read-out: Growth Inhibition (GI 50)) it was 0.9 µM.

The AUC(0-inf) is total exposure, with the tail of the curve extrapolated. Read a high AUC(0-inf) as more exposure. By AUC(0-t) is commonly meant exposure summed from dosing to a finite time, without extrapolation to infinity. For orientation: Tmax means the time at which the peak concentration occurs.
